Test results taken from ChEMBL document CHEMBL5608189, “Design and synthesis of unique indole-benzosulfonamide oleanolic acid derivatives as potent antibacterial agents against MRSA” (Eur J Med Chem, 2024).
Converted amounts (≈) assume the structure as drawn. The source made the active and inactive calls. The calls are words filed in the database; no cut-off is given here.

Legend:
Staphylococcus aureus [1] = assay: Induction of morphological changes in methicillin-resistant Staphylococcus aureus assessed as disruption of cell membrane integrity at 8 times MIC incubated for 8 hrs by SEM analysis; assay type: functional, organism-based
Staphylococcus aureus [2] = assay: Bactericidal activity against Staphylococcus aureus ATCC 6538 measured after 24 hrs; assay type: functional
Staphylococcus aureus [3] = assay: Antibacterial activity against Staphylococcus aureus ATCC 6538 assessed as inhibition of bacterial growth at 2 to 4 times MIC measured every 2 hrs for 24 hrs by time kill assay relative to control; assay type: functional
Staphylococcus aureus [4] = assay: Induction of morphological changes in methicillin-resistant Staphylococcus aureus assessed as disruption of cellular structure at 8 times MIC incubated for 8 hrs by SEM analysis; assay type: functional, organism-based
Cell membrane [5] = assay: Induction of cell membrane in methicillin-resistant Staphylococcus aureus assessed as increase in fluorescence intensity at 1 to 8 times MIC measured after 30 mins by SYTOX green dye based spectrofluorometer; assay type: cell membranes
[6] = Toxicity in female C57BL/6 mouse assessed as erythema in skin at 10 to 30 mg/kg administered daily for 3 days; assay type: organism-based; details: in vivo, 72 h, dose 10-30 mg/kg, time 3 day
Staphylococcus aureus [7] = assay: Antibacterial activity against methicillin-resistant Staphylococcus aureus assessed as reduction in metabolic activity at 8 times MIC measured after 24 hrs by alamar blue assay relative to control; assay type: functional; design: scale not given: the % may be the effect or the level left
Staphylococcus aureus [8] = assay: Antibacterial activity against Staphylococcus aureus ATCC 6538 assessed as delay in bacterial growth at 0.5 times MIC measured every 2 hrs for 24 hrs by time kill assay; assay type: functional, organism-based
Staphylococcus aureus [9] = assay: Antibacterial activity against Staphylococcus aureus ATCC 6538 measured after 24 hrs by susceptibility assay; assay type: functional
Staphylococcus aureus [10] = assay: Antibacterial activity against methicillin-resistant Staphylococcus aureus assessed as delay in bacterial growth at 0.5 times MIC measured every 2 hrs for 24 hrs by time kill assay; assay type: functional, organism-based
Staphylococcus aureus [11] = assay: Induction of intracellular ROS accumulation in methicillin-resistant Staphylococcus aureus assessed as number of fluorescence cells at 2 times MIC incubated for 6 hrs by DCFH-DA staining based flow cytometry analysis (reference value: 3.88)
Staphylococcus aureus [12] = assay: Antibacterial activity against methicillin-resistant Staphylococcus aureus infected in female C57BL/6 mouse wound model assessed as reduction in wound area at 30 mg/kg administered twice on wounds with 6 hrs interval and measured for 7 days; assay type: functional, organism-based; details: time 7.0 day
[13] = system: Staphylococcus epidermidis; assay: Bactericidal activity against Staphylococcus epidermidis ATCC 12228 measured after 24 hrs; assay type: functional
Staphylococcus aureus [14] = assay: Antibacterial activity against methicillin-resistant Staphylococcus aureus measured after 24 hrs by susceptibility assay; assay type: functional
Cell membrane [15] = assay: Disruption of cell membrane integrity in methicillin-resistant Staphylococcus aureus assessed as leakage of cellular content at 8 times MIC incubated for 8 hrs by TEM analysis; assay type: cell membranes
Staphylococcus aureus [16] = assay: Antibacterial activity against methicillin-resistant Staphylococcus aureus assessed as reduction in metabolic activity at 1 to 8 times MIC measured after 24 hrs by alamar blue assay; assay type: functional, organism-based
[17] = system: Staphylococcus epidermidis; assay: Antibacterial activity against Staphylococcus epidermidis ATCC 12228 assessed as inhibition of bacterial growth at 2 to 4 times MIC measured every 2 hrs for 24 hrs by time kill assay relative to control; assay type: functional
Staphylococcus aureus [18] = assay: Induction of intracellular ROS accumulation in methicillin-resistant Staphylococcus aureus assessed as number of fluorescence cells at 4 times MIC incubated for 6 hrs by DCFH-DA staining based flow cytometry analysis (reference value: 3.88)
Staphylococcus aureus [19] = assay: Induction of intracellular ROS accumulation in methicillin-resistant Staphylococcus aureus assessed as number of fluorescence cells at 1 times MIC incubated for 6 hrs by DCFH-DA staining based flow cytometry analysis (reference value: 3.88)
Staphylococcus aureus [20] = assay: Antibacterial activity against Staphylococcus aureus ATCC 29213 measured after 24 hrs by susceptibility assay; assay type: functional
HEK-293T = assay: Cytotoxicity against HEK293T cells assessed as reduction in cell viability upto 64 times MIC incubated for 24 hrs by CCK-8 assay; assay type: toxicity, cell-based; details: human
NIH3T3 = assay: Cytotoxicity against mouse NIH3T3 cells assessed as reduction in cell viability upto 64 times MIC incubated for 24 hrs by CCK-8 assay; assay type: toxicity, cell-based; details: nih3t3, 24 h
[21] = Toxicity in female C57BL/6 mouse assessed as edema in skin at 10 to 30 mg/kg administered daily for 3 days; assay type: organism-based; details: in vivo, 72 h, dose 10-30 mg/kg, time 3 day
[22] = system: Staphylococcus epidermidis; assay: Antibacterial activity against Staphylococcus epidermidis ATCC 12228 measured after 24 hrs by susceptibility assay; assay type: functional
Staphylococcus aureus [23] = assay: Antibacterial activity against Staphylococcus aureus ATCC 6538 assessed as inhibition of bacterial growth at 1 times MIC measured every 2 hrs for 24 hrs by time kill assay; assay type: functional, organism-based
Staphylococcus aureus [24] = assay: Antibacterial activity against methicillin-resistant Staphylococcus aureus infected in female C57BL/6 mouse wound model assessed as log reduction in viable bacterial count at 10 mg/kg administered twice on wounds with 6 hrs interval and measured for 7 days; assay type: functional; details: time 7 day
Cell membrane [25] = assay: Induction of cell membrane damage in methicillin-resistant Staphylococcus aureus assessed as increase in red fluorescence in PI channel at 8 times MIC incubated for 4 hrs by Calcein-AM/PI staining based confocal microscopic analysis; assay type: cell membranes
Staphylococcus aureus [26] = assay: Induction of intracellular ROS accumulation in methicillin-resistant Staphylococcus aureus assessed as number of fluorescence cells at 8 times MIC incubated for 6 hrs by DCFH-DA staining based flow cytometry analysis (reference value: 3.88)
[27] = system: Staphylococcus epidermidis; assay: Antibacterial activity against Staphylococcus epidermidis ATCC 12228 assessed as inhibition of bacterial growth at 1 times MIC measured every 2 hrs for 24 hrs by time kill assay; assay type: functional, organism-based
Cell membrane [28] = assay: Disruption of cell membrane integrity in methicillin-resistant Staphylococcus aureus assessed as rupture of cell membrane at 8 times MIC incubated for 8 hrs by TEM analysis; assay type: cell membranes
Staphylococcus aureus [29] = assay: Antibacterial activity against methicillin-resistant Staphylococcus aureus infected in female C57BL/6 mouse wound model assessed as log reduction in viable bacterial count at 30 mg/kg administered twice on wounds with 6 hrs interval and measured for 7 days; assay type: functional; details: time 7 day
Cell membrane [30] = assay: Induction of cell membrane in methicillin-resistant Staphylococcus aureus assessed as increase in fluorescence intensity by measuring number of PI-permeable cells at 2 times MIC measured after 2 hrs by PI staining based flow cytometry analysis (reference value: 5.71); assay type: cell membranes
Staphylococcus aureus [31] = assay: Antibacterial activity against methicillin-resistant Staphylococcus aureus assessed as inhibition of bacterial growth at 2 to 4 times MIC measured every 2 hrs for 24 hrs by time kill assay relative to control; assay type: functional
[32] = system: Staphylococcus epidermidis; assay: Antibacterial activity against Staphylococcus epidermidis ATCC 12228 assessed as delay in bacterial growth at 0.5 times MIC measured every 2 hrs for 24 hrs by time kill assay; assay type: functional, organism-based
Cell membrane [33] = assay: Induction of cell membrane in methicillin-resistant Staphylococcus aureus assessed as increase in fluorescence intensity by measuring number of PI-permeable cells at 4 times MIC measured after 2 hrs by PI staining based flow cytometry analysis (reference value: 5.71); assay type: cell membranes
Staphylococcus aureus [34] = assay: Antibacterial activity against methicillin-resistant Staphylococcus aureus assessed as inhibition of bacterial growth at 1 times MIC measured every 2 hrs for 24 hrs by time kill assay; assay type: functional, organism-based

SMILES: CC1(C)CC[C@]2(C(=O)NS(=O)(=O)c3ccc(Cl)cc3)CC[C@]3(C)C(=CC[C@@H]4[C@@]5(C)Cc6c([nH]c7c(C(=O)O)cccc67)C(C)(C)[C@@H]5CC[C@]43C)[C@@H]2C1
- Activity (Staphylococcus aureus [1]): Active
- MBC (Staphylococcus aureus [2]): 2 µM (≈ 1.49 µg/mL)
- inhibition (INH) (Staphylococcus aureus [3]): 100%
- Activity (Staphylococcus aureus [4]): Active
- Activity (Cell membrane [5]): Dose-Dependent Effect
- Activity [6]: Non-Toxic
- Activity (Staphylococcus aureus [7]): 55%
- Activity (Staphylococcus aureus [8]): Active
- MIC (Staphylococcus aureus [9]): 1 µM (≈ 0.745 µg/mL)
- Activity (Staphylococcus aureus [10]): Active
- Activity (Staphylococcus aureus [11]): 1.57
- Activity (Staphylococcus aureus [12]): Active
- MBC [13]: 2 µM (≈ 1.49 µg/mL)
- MIC (Staphylococcus aureus [14]): 1 µM (≈ 0.745 µg/mL)
- Activity (Cell membrane [15]): Active
- Activity (Staphylococcus aureus [16]): Dose-Dependent Effect
- inhibition (INH) [17]: 100%
- Activity (Staphylococcus aureus [18]): 1.91
- Activity (Staphylococcus aureus [19]): 1.96
- MIC (Staphylococcus aureus [20]): 2 µM (≈ 1.49 µg/mL)
- Activity (HEK-293T): Non-Toxic
- Activity (NIH3T3): Non-Toxic
- Activity [21]: Non-Toxic
- MIC [22]: 2 µM (≈ 1.49 µg/mL)
- Activity (Staphylococcus aureus [23]): Active
- log(activity) (Staphylococcus aureus [24]): ~1.6
- Activity (Cell membrane [25]): Active
- Activity (Staphylococcus aureus [26]): 1.99
- Activity [27]: Active
- Activity (Cell membrane [28]): Active
- log(activity) (Staphylococcus aureus [29]): 2.5
- Activity (Cell membrane [30]): 11.6
- inhibition (INH) (Staphylococcus aureus [31]): 100%
- Activity [32]: Active
- Activity (Cell membrane [33]): 13.5
- Activity (Staphylococcus aureus [34]): Active
